How the values were obtained:
[1] = biological target: Mu-type opioid receptor (Homo sapiens, UniProt P35372); assay: biochemical; assay type: functional
[2] = biological target: D(3) dopamine receptor (Homo sapiens, UniProt P35462)
[3] = biological target: 5-hydroxytryptamine receptor 2B (Homo sapiens, UniProt P41595); assay type: functional, cell-based
[4] = biological target: T1, Alpha-2A adrenergic receptor (Homo sapiens, UniProt P08913); assay type: functional, cell-based
T1 sequence (P08913 whole entry): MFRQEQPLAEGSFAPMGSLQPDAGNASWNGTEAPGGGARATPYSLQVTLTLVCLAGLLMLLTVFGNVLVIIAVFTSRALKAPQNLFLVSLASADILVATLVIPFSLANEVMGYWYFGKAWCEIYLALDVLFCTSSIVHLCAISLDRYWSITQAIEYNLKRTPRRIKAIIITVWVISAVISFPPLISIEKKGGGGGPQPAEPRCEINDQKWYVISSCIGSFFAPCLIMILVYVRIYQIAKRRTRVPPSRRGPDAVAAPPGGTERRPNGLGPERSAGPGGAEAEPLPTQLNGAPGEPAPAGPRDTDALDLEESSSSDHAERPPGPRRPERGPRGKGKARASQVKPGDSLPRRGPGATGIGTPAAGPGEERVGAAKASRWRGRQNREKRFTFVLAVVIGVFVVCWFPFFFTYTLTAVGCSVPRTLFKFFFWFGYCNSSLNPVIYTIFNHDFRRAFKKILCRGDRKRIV

[5] = biological target: T2, 5-hydroxytryptamine receptor 1A (Homo sapiens, UniProt P08908); assay type: functional, cell-based
T2 sequence (P08908 whole entry): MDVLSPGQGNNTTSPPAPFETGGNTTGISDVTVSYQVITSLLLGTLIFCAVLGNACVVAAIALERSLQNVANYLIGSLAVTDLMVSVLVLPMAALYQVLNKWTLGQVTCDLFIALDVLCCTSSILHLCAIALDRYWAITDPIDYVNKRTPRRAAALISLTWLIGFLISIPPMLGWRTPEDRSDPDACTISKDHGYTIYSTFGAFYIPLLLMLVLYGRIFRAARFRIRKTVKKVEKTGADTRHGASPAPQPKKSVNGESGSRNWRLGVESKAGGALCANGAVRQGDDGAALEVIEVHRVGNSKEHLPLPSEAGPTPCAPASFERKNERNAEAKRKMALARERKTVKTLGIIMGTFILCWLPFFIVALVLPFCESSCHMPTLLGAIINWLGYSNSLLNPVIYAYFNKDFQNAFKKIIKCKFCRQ

[6] = biological target: Glutamate receptor ionotropic, NMDA 1 (Rattus norvegicus, UniProt P35439)
[7] = biological target: Adenosine receptor A2a (Homo sapiens, UniProt P29274)
Chain of Adenosine receptor A2a (P29274 whole entry): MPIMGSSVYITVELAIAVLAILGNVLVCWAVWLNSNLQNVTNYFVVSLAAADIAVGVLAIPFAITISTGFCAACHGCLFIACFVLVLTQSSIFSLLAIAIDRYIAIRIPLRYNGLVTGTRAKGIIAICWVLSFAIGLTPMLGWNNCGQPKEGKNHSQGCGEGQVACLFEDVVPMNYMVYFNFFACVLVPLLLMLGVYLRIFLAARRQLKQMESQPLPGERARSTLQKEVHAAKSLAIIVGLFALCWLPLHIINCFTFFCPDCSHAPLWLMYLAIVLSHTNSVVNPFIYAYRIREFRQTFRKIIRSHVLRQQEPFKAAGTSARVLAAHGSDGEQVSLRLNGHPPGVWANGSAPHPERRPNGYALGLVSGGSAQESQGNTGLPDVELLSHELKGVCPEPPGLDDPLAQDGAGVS

[8] = biological target: T3, Neuropeptide Y receptor type 1 (Homo sapiens, UniProt P25929)
T3 sequence (P25929 whole entry): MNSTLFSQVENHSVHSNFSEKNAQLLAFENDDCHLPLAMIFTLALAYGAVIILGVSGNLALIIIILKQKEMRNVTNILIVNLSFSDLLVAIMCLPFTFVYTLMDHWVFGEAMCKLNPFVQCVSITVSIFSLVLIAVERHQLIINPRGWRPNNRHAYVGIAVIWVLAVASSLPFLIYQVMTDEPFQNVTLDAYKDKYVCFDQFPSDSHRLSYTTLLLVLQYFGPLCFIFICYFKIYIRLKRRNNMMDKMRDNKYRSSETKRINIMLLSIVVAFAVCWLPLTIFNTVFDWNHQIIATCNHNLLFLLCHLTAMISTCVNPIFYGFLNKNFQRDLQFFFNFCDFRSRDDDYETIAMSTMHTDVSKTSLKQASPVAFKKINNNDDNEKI

[9] = biological target: Cannabinoid receptor 1 (Homo sapiens, UniProt P21554); assay type: functional, cell-based
Chain of Cannabinoid receptor 1 (P21554 whole entry): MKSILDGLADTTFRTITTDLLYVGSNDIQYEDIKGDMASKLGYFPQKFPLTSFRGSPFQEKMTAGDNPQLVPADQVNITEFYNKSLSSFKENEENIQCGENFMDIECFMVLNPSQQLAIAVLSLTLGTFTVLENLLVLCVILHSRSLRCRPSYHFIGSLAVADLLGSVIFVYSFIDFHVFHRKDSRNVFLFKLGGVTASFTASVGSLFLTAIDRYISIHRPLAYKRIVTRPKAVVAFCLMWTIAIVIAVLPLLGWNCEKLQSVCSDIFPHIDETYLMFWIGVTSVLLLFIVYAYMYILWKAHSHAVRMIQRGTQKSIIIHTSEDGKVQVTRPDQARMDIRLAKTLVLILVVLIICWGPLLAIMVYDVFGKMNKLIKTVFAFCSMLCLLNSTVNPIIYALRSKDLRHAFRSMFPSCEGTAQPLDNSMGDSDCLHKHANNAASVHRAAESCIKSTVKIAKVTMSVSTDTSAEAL

[10] = biological target: T4, Estrogen receptor (Homo sapiens, UniProt P03372)
T4 sequence (P03372 whole entry): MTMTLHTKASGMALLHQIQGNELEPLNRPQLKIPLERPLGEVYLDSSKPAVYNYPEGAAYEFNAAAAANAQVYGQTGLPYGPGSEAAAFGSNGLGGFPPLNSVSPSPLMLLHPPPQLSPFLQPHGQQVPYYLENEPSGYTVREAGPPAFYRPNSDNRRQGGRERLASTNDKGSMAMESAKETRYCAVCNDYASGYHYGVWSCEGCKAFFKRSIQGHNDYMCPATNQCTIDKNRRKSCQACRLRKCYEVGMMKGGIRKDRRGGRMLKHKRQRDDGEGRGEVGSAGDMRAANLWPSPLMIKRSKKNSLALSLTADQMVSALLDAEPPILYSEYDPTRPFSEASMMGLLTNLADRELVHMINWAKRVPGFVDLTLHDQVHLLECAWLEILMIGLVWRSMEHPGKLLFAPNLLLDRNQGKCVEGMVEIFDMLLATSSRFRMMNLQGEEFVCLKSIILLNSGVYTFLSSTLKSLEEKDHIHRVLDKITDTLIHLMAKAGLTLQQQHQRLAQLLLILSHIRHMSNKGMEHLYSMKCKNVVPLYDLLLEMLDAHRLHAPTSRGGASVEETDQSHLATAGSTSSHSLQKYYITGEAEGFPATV

[11] = biological target: 3',5'-cyclic-AMP phosphodiesterase 4D (Homo sapiens, UniProt Q08499); assay type: functional
Chain of 3',5'-cyclic-AMP phosphodiesterase 4D (Q08499 whole entry): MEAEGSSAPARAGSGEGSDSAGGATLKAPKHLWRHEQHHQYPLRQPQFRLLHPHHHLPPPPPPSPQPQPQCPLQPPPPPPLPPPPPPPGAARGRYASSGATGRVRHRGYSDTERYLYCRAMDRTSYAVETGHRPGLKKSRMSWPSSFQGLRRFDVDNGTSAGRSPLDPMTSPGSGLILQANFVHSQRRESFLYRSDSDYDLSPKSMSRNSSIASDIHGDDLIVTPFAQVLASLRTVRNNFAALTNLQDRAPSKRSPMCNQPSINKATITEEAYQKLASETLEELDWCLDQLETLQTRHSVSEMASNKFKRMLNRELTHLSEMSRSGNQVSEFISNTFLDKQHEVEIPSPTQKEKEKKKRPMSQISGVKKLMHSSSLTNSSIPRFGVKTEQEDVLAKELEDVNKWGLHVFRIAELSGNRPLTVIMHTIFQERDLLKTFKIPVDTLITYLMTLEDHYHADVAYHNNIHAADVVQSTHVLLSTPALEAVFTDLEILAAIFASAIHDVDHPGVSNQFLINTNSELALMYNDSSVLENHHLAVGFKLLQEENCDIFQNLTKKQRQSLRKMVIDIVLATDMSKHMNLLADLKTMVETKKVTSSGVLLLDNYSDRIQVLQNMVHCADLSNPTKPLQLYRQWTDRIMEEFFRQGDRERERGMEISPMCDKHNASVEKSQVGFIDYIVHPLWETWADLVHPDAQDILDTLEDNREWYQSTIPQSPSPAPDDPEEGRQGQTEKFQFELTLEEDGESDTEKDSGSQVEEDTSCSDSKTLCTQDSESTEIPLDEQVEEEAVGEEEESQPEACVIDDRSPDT

[12] = biological target: D(1A) dopamine receptor (Homo sapiens, UniProt P21728); assay type: functional, cell-based
Chain of D(1A) dopamine receptor (P21728 whole entry): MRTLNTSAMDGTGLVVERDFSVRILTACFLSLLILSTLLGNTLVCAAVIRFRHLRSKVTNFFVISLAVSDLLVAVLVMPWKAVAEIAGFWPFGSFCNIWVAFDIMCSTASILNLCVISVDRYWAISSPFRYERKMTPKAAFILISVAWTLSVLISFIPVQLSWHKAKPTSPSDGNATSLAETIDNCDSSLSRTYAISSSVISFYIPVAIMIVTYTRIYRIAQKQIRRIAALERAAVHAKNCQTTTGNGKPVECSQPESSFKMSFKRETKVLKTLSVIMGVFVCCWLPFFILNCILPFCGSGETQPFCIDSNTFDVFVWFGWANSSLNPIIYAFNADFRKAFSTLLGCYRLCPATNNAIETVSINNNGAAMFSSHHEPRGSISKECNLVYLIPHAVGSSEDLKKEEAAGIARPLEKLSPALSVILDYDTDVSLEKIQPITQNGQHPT

[13] = biological target: Neuronal acetylcholine receptor subunit alpha-4 (Homo sapiens, UniProt P43681)
Chain of Neuronal acetylcholine receptor subunit alpha-4 (P43681 whole entry): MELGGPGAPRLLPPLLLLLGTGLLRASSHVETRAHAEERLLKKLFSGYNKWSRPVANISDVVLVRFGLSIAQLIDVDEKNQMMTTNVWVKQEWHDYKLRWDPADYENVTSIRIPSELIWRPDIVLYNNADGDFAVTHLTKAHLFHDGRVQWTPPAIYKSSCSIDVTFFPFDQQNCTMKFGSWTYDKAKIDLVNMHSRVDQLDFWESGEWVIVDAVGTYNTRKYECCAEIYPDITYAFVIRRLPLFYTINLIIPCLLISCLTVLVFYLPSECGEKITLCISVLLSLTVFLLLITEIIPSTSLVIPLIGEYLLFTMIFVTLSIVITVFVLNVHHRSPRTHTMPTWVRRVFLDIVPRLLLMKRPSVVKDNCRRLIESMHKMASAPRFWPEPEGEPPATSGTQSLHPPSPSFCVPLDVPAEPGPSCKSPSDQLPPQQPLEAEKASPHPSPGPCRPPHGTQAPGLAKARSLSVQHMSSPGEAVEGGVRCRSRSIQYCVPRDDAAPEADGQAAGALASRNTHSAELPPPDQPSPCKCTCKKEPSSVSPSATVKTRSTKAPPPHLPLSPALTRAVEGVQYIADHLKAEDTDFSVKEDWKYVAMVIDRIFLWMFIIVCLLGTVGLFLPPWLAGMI

[14] = biological target: T5, Alpha-1A adrenergic receptor (Homo sapiens, UniProt P35348); assay type: functional, cell-based
T5 sequence (P35348 whole entry): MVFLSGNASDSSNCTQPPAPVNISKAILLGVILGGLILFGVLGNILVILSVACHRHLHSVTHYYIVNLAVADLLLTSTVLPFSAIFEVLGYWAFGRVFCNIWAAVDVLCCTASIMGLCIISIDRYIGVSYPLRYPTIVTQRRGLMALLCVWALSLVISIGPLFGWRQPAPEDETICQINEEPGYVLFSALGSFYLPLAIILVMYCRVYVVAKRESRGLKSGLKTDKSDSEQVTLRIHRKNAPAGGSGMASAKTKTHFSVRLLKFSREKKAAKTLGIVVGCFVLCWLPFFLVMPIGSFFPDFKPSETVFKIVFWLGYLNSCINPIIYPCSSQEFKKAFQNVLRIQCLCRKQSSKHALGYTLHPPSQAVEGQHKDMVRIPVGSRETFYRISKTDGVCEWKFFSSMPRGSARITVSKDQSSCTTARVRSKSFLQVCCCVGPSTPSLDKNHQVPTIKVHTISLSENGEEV
Note: assay procedure not described here.

Chain of D(3) dopamine receptor (P35462 whole entry): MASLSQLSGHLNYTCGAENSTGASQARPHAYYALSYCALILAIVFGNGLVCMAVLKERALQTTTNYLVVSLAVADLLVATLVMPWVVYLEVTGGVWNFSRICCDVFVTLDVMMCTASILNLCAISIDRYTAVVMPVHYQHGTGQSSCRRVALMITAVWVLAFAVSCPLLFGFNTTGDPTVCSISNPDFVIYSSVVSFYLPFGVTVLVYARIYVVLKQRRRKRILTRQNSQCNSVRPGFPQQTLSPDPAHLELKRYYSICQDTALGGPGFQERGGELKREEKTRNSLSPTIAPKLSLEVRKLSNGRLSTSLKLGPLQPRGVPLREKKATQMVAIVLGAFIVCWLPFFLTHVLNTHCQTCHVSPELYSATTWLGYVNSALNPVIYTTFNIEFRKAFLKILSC
Chain of Mu-type opioid receptor (P35372 whole entry): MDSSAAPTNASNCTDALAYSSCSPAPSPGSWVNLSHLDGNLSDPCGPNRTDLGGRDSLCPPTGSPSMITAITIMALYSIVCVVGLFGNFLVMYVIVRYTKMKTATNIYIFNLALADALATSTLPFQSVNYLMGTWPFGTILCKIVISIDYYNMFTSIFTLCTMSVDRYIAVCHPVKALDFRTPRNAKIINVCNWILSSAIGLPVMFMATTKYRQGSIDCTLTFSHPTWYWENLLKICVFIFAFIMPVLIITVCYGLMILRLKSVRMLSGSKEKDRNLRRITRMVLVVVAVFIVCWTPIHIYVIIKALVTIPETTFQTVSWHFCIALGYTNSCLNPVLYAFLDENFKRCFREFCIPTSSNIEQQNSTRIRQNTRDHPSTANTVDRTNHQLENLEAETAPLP
Chain of 5-hydroxytryptamine receptor 2B (P41595 whole entry): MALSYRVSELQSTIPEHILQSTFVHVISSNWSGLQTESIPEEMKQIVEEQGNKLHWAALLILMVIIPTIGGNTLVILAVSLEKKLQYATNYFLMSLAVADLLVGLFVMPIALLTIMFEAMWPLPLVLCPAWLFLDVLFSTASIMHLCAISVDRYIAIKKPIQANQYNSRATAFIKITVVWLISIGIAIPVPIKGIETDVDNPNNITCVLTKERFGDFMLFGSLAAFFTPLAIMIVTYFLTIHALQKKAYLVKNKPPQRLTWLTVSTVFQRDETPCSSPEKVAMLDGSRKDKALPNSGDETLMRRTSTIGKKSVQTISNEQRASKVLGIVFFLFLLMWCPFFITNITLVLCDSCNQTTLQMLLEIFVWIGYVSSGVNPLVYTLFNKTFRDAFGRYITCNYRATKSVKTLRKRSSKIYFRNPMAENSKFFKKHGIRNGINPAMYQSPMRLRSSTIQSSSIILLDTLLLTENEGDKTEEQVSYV

SMILES | AC50 [1] [µM] | AC50 [2] [µM] | AC50 [3] [µM] | AC50 [4] [µM] | AC50 [5] [µM] | AC50 [6] [µM] | AC50 [7] [µM] | AC50 [8] [µM] | AC50 [9] [µM] | AC50 [10] [µM] | AC50 [11] [µM] | AC50 [12] [µM] | AC50 [13] [µM] | AC50 [14] [µM]
CCn1cc(C(=O)O)c(=O)c2cc(F)c(N3CCN(C)CC3)cc21 [PEFLOXACIN] | > 30 | 3.6 | > 30 | > 30 | > 30 | > 30 | > 30 | > 30 | > 30 | > 30 | > 30 | > 30 | – | –
Cc1ccc2c(-c3ccccc3)nc(=O)n(C(C)C)c2c1 [PROQUAZONE] | > 30 | > 30 | – | 28 | > 30 | > 30 | > 30 | > 30 | > 30 | > 30 | 0.81 | > 30 | > 30 | > 30
Cc1cc2nc3c(=O)[nH]c(=O)nc-3n(C[C@H](O)[C@H](O)[C@H](O)COP(=O)(O)O)c2cc1C [RIBOFLAVIN 5'-PHOSPHATE] | > 30 | > 30 | – | – | – | > 30 | > 30 | > 30 | – | 3.7 | > 30 | > 30 | > 30 | 5.1
CC(NCCc1ccc(O)cc1)C(O)c1ccc(O)cc1 (configuration not stated) [RITODRINE] | 8.1 | > 30 | > 30 | > 30 | > 30 | > 30 | > 30 | > 30 | – | > 30 | > 30 | > 10 | > 30 | 2
CN1c2ccccc2C(NCCCCCCC(=O)O)c2ccc(Cl)cc2S1(=O)=O (configuration not stated) [TIANEPTINE] | 2.6 | 20 | > 30 | > 30 | > 30 | > 30 | > 30 | > 30 | > 30 | > 30 | > 30 | > 30 | > 30 | –
Cc1cccc(N(C)C(=S)Oc2ccc3ccccc3c2)c1 [TOLNAFTATE] | > 30 | > 30 | > 10 | > 10 | > 10 | > 10 | > 10 | > 10 | – | > 30 | > 30 | > 30 | > 10 | > 30
N#C[C@@H]1CCCN1C(=O)CNC12CC3CC(CC(O)(C3)C1)C2 [VILDAGLIPTIN] | > 30 | > 30 | > 30 | > 30 | > 30 | > 30 | > 30 | > 30 | – | > 30 | > 30 | > 30 | > 10 | > 30

— ChEMBL document CHEMBL5291721, “A preclinical secondary pharmacology resource illuminates target-adverse drug reaction associations of marketed drugs” (Nat Commun, 2023)
